Among the data in ChEMBL document CHEMBL3244003, “Synthesis and biological activity of several amino analogues of thymidine” (1978) are inhibition values, retold here.

Active and inactive are the calls of the source. No cut-off for these calls is given here.

In assay [1] the test system is Human alphaherpesvirus 1. The assay is described as follows: Antiviral activity against HSV1 at 400 uM. Type of assay: functional.
The subject of assay [2] is CCRF S-180. Kind of assay: Antineoplastic activity against mouse S180 cells at 400 uM. Type of assay: functional, cell-based.
The subject of assay [3] is L1210. The assay is described as follows: Antineoplastic activity against mouse L1210 cells at 400 uM. The assay is classed as functional, cell-based.
The test system of assay [4] is L1210. Kind of assay: Antineoplastic activity against mouse L1210 cells at 5 uM in presence of cytidine relative to compound alone. Type of assay: functional.
Assay [5] has as its system L1210. Kind of assay: Antineoplastic activity against mouse L1210 cells at 1 uM. Type of assay: functional.
The subject of assay [6] is L1210. Kind of assay: Antineoplastic activity against mouse L1210 cells at 1 uM in presence of deoxyguanosine relative to compound alone. Type of assay: functional.
The test system of assay [7] is L1210. Kind of assay: Antineoplastic activity against mouse L1210 cells at 1 uM in presence of cytidine relative to compound alone. The assay is classed as functional.
For assay [8], the system named is L1210. Kind of assay: Antineoplastic activity against mouse L1210 cells at 250 uM. The assay is classed as functional.
Assay [9] relates to L1210. The assay is described as follows: Antineoplastic activity against mouse L1210 cells at 25 uM in presence of uridine relative to compound alone. Type of assay: functional.
Assay [10] concerns L1210. Kind of assay: Antineoplastic activity against mouse L1210 cells at 3 uM. The assay is classed as functional.
Assay [11] has as its system L1210. The assay is described as follows: Antineoplastic activity against mouse L1210 cells at 5 uM in presence of deoxycytidine relative to compound alone. The assay is classed as functional.
Assay [12] has as its system L1210. Kind of assay: Antineoplastic activity against mouse L1210 cells at 5 uM in presence of deoxyguanosine relative to compound alone. The assay is classed as functional.
Assay [13] relates to CCRF S-180. The assay is described as follows: Antineoplastic activity against mouse S180 cells at 5 uM. Type of assay: functional.
Assay [14] relates to L1210. The assay is described as follows: Antineoplastic activity against mouse L1210 cells at 25 uM in presence of deoxyguanosine relative to compound alone. The assay is classed as functional.
Assay [15] deals with CCRF S-180. The assay is described as follows: Antineoplastic activity against mouse S180 cells at 1 uM. The assay is classed as functional.
Assay [16] deals with L1210. Kind of assay: Antineoplastic activity against mouse L1210 cells at 25 uM in presence of cytidine relative to compound alone. The assay is classed as functional.
The subject of assay [17] is L1210. Kind of assay: Antineoplastic activity against mouse L1210 cells at 5 uM in presence of deoxyadenosine relative to compound alone. Type of assay: functional.
In assay [18] the test system is L1210. Kind of assay: Antineoplastic activity against mouse L1210 cells at 25 uM in presence of deoxycytidine relative to compound alone. The assay is classed as functional.
In assay [19] the test system is L1210. The assay is described as follows: Antineoplastic activity against mouse L1210 cells at 0.5 uM. The assay is classed as functional.
In assay [20] the test system is L1210. Kind of assay: Antineoplastic activity against mouse L1210 cells at 9 uM in presence of thymidine relative to compound alone. Type of assay: functional.
Assay [21] deals with L1210. The assay is described as follows: Antineoplastic activity against mouse L1210 cells at 1 uM in presence of thymidine relative to compound alone. Type of assay: functional.
The test system of assay [22] is L1210. Kind of assay: Antineoplastic activity against mouse L1210 cells at 1 uM in presence of uridine relative to compound alone. The assay is classed as functional.
The test system of assay [23] is L1210. Kind of assay: Antineoplastic activity against mouse L1210 cells at 5 uM in presence of uridine relative to compound alone. Type of assay: functional.
The subject of assay [24] is L1210. The assay is described as follows: Antineoplastic activity against mouse L1210 cells at 25 uM in presence of deoxyuridine relative to compound alone. Type of assay: functional.
In assay [25] the test system is L1210. The assay is described as follows: Antineoplastic activity against mouse L1210 cells at 50 uM. The assay is classed as functional.
Assay [26] has as its system L1210. Kind of assay: Antineoplastic activity against mouse L1210 cells at 27 uM in presence of thymidine relative to compound alone. The assay is classed as functional.
The test system of assay [27] is L1210. The assay is described as follows: Antineoplastic activity against mouse L1210 cells at 15 uM. The assay is classed as functional.
The subject of assay [28] is L1210. Kind of assay: Antineoplastic activity against mouse L1210 cells at 25 uM in presence of deoxyadenosine relative to compound alone. Type of assay: functional.
Assay [29] relates to L1210. The assay is described as follows: Antineoplastic activity against mouse L1210 cells at 1 uM in presence of deoxyuridine relative to compound alone. The assay is classed as functional.
Assay [30] deals with L1210. Kind of assay: Antineoplastic activity against mouse L1210 cells at 1 uM in presence of deoxyadenosine relative to compound alone. Type of assay: functional.
The subject of assay [31] is L1210. Kind of assay: Antineoplastic activity against mouse L1210 cells at 1 uM in presence of deoxycytidine relative to compound alone. The assay is classed as functional.
Assay [32] deals with L1210. Kind of assay: Antineoplastic activity against mouse L1210 cells at 25 uM. The assay is classed as functional.
The subject of assay [33] is L1210. The assay is described as follows: Antineoplastic activity against mouse L1210 cells at 500 uM. Type of assay: functional.
Assay [34] concerns CCRF S-180. The assay is described as follows: Antineoplastic activity against mouse S180 cells at 250 uM. Type of assay: functional.
The test system of assay [35] is L1210. Kind of assay: Antineoplastic activity against mouse L1210 cells at 3 uM in presence of thymidine relative to compound alone. The assay is classed as functional.
The test system of assay [36] is L1210. Kind of assay: Antineoplastic activity against mouse L1210 cells at 5 uM in presence of deoxyuridine relative to compound alone. The assay is classed as functional.
Assay [37] deals with CCRF S-180. Kind of assay: Antineoplastic activity against mouse S180 cells at 25 uM. The assay is classed as functional.
The subject of assay [38] is CCRF S-180. The assay is described as follows: Antineoplastic activity against mouse S180 cells at 50 uM. The assay is classed as functional.

A word on the inhibition: it is the change of the read-out against control, counted positive when it falls. In the case of `Cc1cn([C@H]2C[C@H](O)[C@@H](CN)O2)c(=O)[nH]c1=O`, in assay [1], the inhibition at 400 µM was found to be 98%. Moreover, the inhibition entry in [2] and in assay [3] was “inactive” throughout.
As to `Cc1cn([C@H]2C[C@H](N)[C@@H](CN)O2)c(=O)[nH]c1=O`, the inhibition result in [1], in assay [2] and in [3] was “inactive” throughout.
For the compound `Cc1cn([C@H]2C[C@H](N)[C@@H](CO)O2)c(=O)[nH]c1=O` [3-AMINO- 3-DEOXYTHYMIDINE], the inhibition at 5 µM in assay [4] came out at 100%; in assay [11], 61%; in assay [12] it was 86%; in assay [13], 55%; in assay [17], 89%; in [23] it was 99%. Moreover, the inhibition at 5 µM in [36] came out at 74%. The inhibition at 1 µM was 58% in [5]; 87% in assay [6]; 100% in assay [7]; 37% in assay [15]; 75.2% in [21]; 100% in assay [22]. Besides, the inhibition at 1 µM in [29] turned out to be 88%; in assay [30], 89%; in assay [31], 80%. The values for the inhibition at 250 µM in assay [8] and in [34] were 93% and 73%, respectively. Further, the inhibition at 25 µM is 95% in assay [9]; 102% in assay [14]; 99% in [16]; 28% in assay [18]; 48% in [24]; 93% in assay [28]. For the same compound, the inhibition at 25 µM in assay [32] stood at 88%; in [37], 68%. The values for the inhibition at 3 µM in assay [10] and in assay [35] were 87% and 55.2%, respectively. The inhibition at 0.5 µM in [19] worked out at 43%. Further, in [1], the inhibition at 400 µM turned out to be 62%. Besides, in [20], the inhibition at 9 µM worked out at 38.1%. The inhibition at 50 µM worked out at 92% in [25] and 66% in assay [38]. Besides, the inhibition at 27 µM in [26] turned out to be 22.4%. Further, the inhibition at 15 µM in assay [27] was found to be 91%. Also, the inhibition at 500 µM in assay [33] was determined as 95%.
